In one test the test system is P388 leukemia. In words: NCI tumour cell line growth inhibition, 48 h.
Another test has as its system SN12K1 renal. Briefly: NCI tumour cell line growth inhibition, 48 h.

Structures are written as SMILES.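 Protocol summary: plate cells (96-well), add compound at 5 concentrations, incubate 48 h, interpolate endpoints linearly. TGI denotes the concentration required for complete inhibition of growth.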 A value given as a limit tells only on which side of the number the result lay.

On to `Cc1c(N=NN(C)C)cc[n+]([O-])c1C`, for which the TGI in the test on P388 leukemia and in the test with SN12K1 renal was greater than 100 µM in each case.
